# Measured values as given in US7816074B2, “α4 β2 δGABA-A receptors as a strategy for PMS and alcoholism” (priority 2003, dated 2010).
# Assays:
# GABAR α4 subunit = test: Western blot of α4 subunit in hippocampus after steroid and ethanol administration; format: in vivo, rat; conditions: 48 hours of exposure to 3α,5β-THP (10 mg/kg i.p.), saline
# Description: (§1) Animals were administered steroids using one of two protocols: (i) For the 48 hour steroid administration protocol, animals were injected with 10 mg/kg 3α, 5β THP in oil, i.p., on a daily basis for three days and sacrificed 1-2 hour following the final injection. Controls were injected with oil vehicle. […] At this time, the capsule was removed and the animals were injected with 17 β estradiol (2 μgs/animal) in order to reset their cycle. Animals were sacrificed 24 hours later. […] In all cases, implantation and removal of capsules were performed under halothane anesthesia. […] Therefore, this study employed the 5β isomer of the steroid.
# (§2) In some groups of animals, either ethanol (0.5 g/kg in saline) or saline vehicle was administered i.p. (3×, every 40 minutes) for the final 2 hours of the respective steroid administration or withdrawal paradigm. The use of multiple injections of low doses of ethanol would approximate ethanol consumption in the human more closely than would a single injection. For the 48 hour steroid administration paradigm, animals received their first ethanol injection immediately after the steroid injection, and subsequent injections at 40 minute intervals. In all cases, animals were sacrificed 40 minutes after the final ethanol injection (2 hours after the first ethanol injection and final steroid injection). All animal protocols were carried out with the approval of the Institutional Animal Care and Use Committee.
# Hippocampi removed from steroid or vehicle-treated animals were homogenized, and membranes prepared as previously described (65). Following electrophoresis on 8% SDS polyacrylamide gels, membranes were transferred to a nitrocellulose membrane (Bio-Rad, Hercules, Calif.). α4 subunit levels were detected by evaluating the band density at 67 kDa after probing with a polyclonal antibody (64). Membranes were incubated for 1-2 hours at room temperature with a 1:5000 dilution of horseradish peroxidase-conjugated donkey anti-rabbit IgG (Amersham, Arlington Heights, Ill.), and visualized with enhanced chemiluminescence with varying concentrations of protein in the linear range. Immunoreactive band densities were quantified using a CCD camera (UMAX Scanner) and one-Dscan software, which uses multiple Gaussian fits to achieve accurate band density profiles.
# α4β2δ GABAA receptors [1] = target: T1, α4β2δ GABAA receptors (UniProt O14764+P63138+Q9D6F4); test: Two-electrode voltage-clamp of recombinant GABAA receptors in oocytes; format: cell-based
# T1 construct: expressed in transfected cells
# T1 sequence (Q9D6F4 36-552): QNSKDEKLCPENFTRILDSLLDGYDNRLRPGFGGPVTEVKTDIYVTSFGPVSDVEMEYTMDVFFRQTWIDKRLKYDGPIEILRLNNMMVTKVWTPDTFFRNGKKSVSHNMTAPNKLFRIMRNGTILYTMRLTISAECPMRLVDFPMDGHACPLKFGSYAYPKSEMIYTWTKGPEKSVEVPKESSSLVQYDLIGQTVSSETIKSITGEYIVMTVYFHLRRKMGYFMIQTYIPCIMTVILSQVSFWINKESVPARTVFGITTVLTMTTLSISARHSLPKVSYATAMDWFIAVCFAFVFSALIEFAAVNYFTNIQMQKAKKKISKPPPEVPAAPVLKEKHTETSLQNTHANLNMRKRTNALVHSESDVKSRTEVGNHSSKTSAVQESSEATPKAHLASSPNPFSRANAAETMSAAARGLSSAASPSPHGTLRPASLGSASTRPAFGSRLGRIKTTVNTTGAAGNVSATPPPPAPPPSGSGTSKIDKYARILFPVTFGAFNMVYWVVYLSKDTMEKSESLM
# T1 sequence (P63138 25-474 limits assumed): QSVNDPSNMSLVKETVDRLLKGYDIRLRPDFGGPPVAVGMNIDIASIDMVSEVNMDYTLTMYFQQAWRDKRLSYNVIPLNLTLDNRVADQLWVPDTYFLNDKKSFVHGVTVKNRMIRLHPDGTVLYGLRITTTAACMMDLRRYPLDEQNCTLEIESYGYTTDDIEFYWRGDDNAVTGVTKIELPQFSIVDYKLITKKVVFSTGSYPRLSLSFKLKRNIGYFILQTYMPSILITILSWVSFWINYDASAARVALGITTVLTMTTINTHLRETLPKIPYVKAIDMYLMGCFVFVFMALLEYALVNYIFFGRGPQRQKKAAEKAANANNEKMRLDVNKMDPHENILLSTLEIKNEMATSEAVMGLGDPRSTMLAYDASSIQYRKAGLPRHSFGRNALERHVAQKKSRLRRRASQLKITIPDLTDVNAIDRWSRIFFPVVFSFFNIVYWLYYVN
# T1 sequence (O14764 17-452 limits assumed): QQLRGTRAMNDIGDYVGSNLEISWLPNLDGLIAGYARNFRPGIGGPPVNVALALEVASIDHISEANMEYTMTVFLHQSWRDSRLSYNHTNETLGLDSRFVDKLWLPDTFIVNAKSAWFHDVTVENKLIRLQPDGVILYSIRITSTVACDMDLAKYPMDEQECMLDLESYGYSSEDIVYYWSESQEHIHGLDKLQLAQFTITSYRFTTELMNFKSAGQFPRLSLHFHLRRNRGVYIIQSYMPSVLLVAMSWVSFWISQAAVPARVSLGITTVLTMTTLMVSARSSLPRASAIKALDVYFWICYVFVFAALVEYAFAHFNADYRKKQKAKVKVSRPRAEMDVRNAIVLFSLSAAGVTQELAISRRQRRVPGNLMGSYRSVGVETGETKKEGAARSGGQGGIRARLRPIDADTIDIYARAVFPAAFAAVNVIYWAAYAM
# [2] = system: GABAR of acutely dissociated CA1 hippocampal pyramidal neurons; test: Whole cell patch clamp, lorazepam modulation and decay of GABA-gated current after steroid/ethanol treatment; format: cell-based, rat
# Description: as §1, §2
# Currents were recorded using an Axopatch 1D amplifier (Axon Instruments) filtered at 2 kHz (four-pole Bessel filter) and detected at 500 Hz (pClamp 5.1).
# female Long Evans rats = test: Acoustic startle response (ASR); format: in vivo, rat; conditions: THIP 3 mg/kg i.p.
# Description: Animals were tested in a stabilimeter device (SR-Lab Startle Response System, San Diego Instruments, Inc., San Diego, Calif.) that permits vertical movement of a Plexiglas platform contained within a lit, well-ventilated sound-attenuating chamber (26). The amplitude of movement is detected by a piezoelectric device with a voltage output proportional to platform displacement. The analog output of the accelerometer is then amplified and digitized before computer analysis. Five minutes after i.p. administration of 10% ethanol (0.05-1.6 g/kg) or saline vehicle (1.5 ml volume) or 25 minutes after 4,5,6,7-tetrahydroisoxazolo[5,4-c]pyridin-3-ol injection (3 mg/kg, i.p.), animals were placed in the chamber for a 5 minutes acclimation period. […] Four acoustic stimuli (116 dB, 40 ms duration) were then presented at random intervals once every 10-15 seconds via a white-noise generator through speakers positioned on either side of the cage. […] For each acoustic stimulus, the amplitude and integrated response (amplitude and duration) were determined and normalized to the weight of the animal. Values for the integrated response after administration of each dose of ethanol or 4,5,6,7-tetrahydroisoxazolo[5,4-c]pyridin-3-ol were averaged and expressed as a fraction of the saline control average for the indicated treatment (progesterone withdrawal versus control) group in order to minimize variability between groups. […] It is also routinely used to assess behavioral excitability after withdrawal from BDZs and ethanol (73).
# Animals were tested in a stabilimeter device (SR-Lab Startle Response System, San Diego Instruments, Inc.) that permitted vertical movement of a Plexiglas cage contained within a lit, well-ventilated, sound-attenuating chamber. The amplitude of movement was detected by a piezoelectric device with a voltage output proportional to cage displacement. The analog output of the accelerometer was amplified and digitized before computer analysis (15). Five minutes following intraperitoneal administration of alcohol (0.2 or 0.4 g/kg) or saline vehicle (1.5 ml volume), animals were placed in the chamber for 5 a minute acclimation period. Five acoustic stimuli (116 dB, 40 msec duration) were then presented once every 10-15 seconds via a white-noise generator through speakers positioned on either side of the cage. For each acoustic stimulus, the integrated response (amplitude and duration) was averaged across a 100 msec post-stimulus time period and the response latency determined. Both values were normalized to the weight of the animal. Values for the integrated response for the first noise stimulus following administration of each dose of alcohol were averaged and expressed as a fraction of the saline control average for the indicated treatment (P Wd versus control) group. […] It is routinely used to assess behavioral excitability following withdrawal from benzodiazepiness (48) and alcohol (73), and is known to be modified by GABA modulators, such as diazepam (11), and by local infusion of excitatory compounds into dorsal hippocampus (85).
# [3] = system: GABAA receptors of acutely isolated CA1 hippocampal pyramidal cells; test: Whole cell patch clamp, ethanol or THIP effect on GABA-gated current; format: cell-based, rat; conditions: after progesterone withdrawal
# Description: Pyramidal neurons were acutely dissociated from CA1 hippocampus and GABA-gated Cl^− currents analyzed using whole cell patch clamp procedures as previously described (67). Briefly, tissue was digested at 32° C. for 50-60 minutes under 100% O2 in PIPES-buffered saline containing (in mM): NaCl 120, KCl 5, CaCl2 1, MgCl2 1, D-glucose 25, PIPES 20 and trypsin (type XI, sigma) 0.8 mg/ml, pH 7.0. After 1 hour of enzyme-free incubation at room temperature, tissue was dissociated by trituration in 1 ml of 20 mM HEPES-buffered DMEM which was replaced by recording medium after transfer to the recording chamber. GABA-gated currents were recorded at room temperature (20-25° C.) at a holding potential of −50 mV in a bath containing (in mM): NaCl 120, CsCl 5, CaCl2 2, MgCl2 1, TEA Cl 15, 4-aminopyridine 5, HEPES 10 and glucose 25, pH 7.4, 320 mOsm/kg H2O. The pipette solution contained (in mM): N-methyl-D-glucamine chloride 120, Cs4BAPTA 5 and Mg-ATP 5. The ATP regeneration system Tris phosphocreatine (20 mM) and creatine kinase were added to minimize GABA rundown. All drugs were obtained from Sigma Chemical Co, (St. Louis, Mo.), except for BAPTA (Calbiochem, San, Diego, Calif.).
# Peak currents were calculated for all drug concentrations as relative to the current gated by 10 μM GABA alone using the equation: ([peak current: GABA+ETOH]−[peak current: GABA alone])/[peak current: GABA alone]. Currents were recorded using an Axopatch 1D amplifier (Axon Instruments) filtered at 2 kHz (four-pole Bessel filter) and detected at 500 Hz (pClamp 5.1).
# Following progesterone withdrawal or control conditions, pyramidal cells were acutely isolated from CA1 hippocampus as described (65,64). GABA-gated Cl^− currents were recorded using whole cell patch clamp techniques at a holding potential of −50 mV.
# α4β2δ GABAA receptors [4] = target: T1, α4β2δ GABAA receptors; conditions: α4βδ receptors (ref. 6); cited from earlier work
# [5] = target: T2, α1β2δ receptors (oocytes injected with α1+β2+δ) (Rattus norvegicus, UniProt P62813+P63138); format: cell-based, human δ, expressed in Xenopus laevis oocytes; conditions: 1 μM zinc; the other 15 oocytes injected with α1+β2+δ
# T2 construct: expressed in transfected cells; host or cells: oocytes injected with cRNA (Xenopus laevis is named only)
# T2 sequence (P62813 28-455): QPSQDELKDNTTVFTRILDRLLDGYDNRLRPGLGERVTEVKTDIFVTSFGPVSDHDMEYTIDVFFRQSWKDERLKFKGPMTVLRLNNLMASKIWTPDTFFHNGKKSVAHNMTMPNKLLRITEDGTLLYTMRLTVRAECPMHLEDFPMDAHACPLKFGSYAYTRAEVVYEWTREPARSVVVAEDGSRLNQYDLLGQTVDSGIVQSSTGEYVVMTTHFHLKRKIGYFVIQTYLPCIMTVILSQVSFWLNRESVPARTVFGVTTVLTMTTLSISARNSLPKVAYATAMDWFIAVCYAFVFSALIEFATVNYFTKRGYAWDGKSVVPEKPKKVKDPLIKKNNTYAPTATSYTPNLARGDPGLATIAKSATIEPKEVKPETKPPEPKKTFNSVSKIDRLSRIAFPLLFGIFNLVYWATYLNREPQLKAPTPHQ
# T2 sequence (P63138 26-474): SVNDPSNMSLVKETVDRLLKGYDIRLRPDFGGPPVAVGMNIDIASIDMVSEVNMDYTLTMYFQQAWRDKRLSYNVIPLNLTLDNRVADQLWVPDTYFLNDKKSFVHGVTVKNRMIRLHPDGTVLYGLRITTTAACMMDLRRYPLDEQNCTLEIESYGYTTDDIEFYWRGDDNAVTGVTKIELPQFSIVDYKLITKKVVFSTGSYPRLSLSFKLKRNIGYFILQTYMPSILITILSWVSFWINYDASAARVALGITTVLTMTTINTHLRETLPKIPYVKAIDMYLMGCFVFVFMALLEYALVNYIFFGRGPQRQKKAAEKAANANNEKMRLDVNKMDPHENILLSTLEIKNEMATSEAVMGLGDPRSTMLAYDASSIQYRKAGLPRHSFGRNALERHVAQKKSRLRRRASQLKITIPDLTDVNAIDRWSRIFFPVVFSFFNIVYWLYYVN
# From the text: (§3) Plasmids with inserts encoding GABAA receptor subunit sequence for rat α1 (62), rat β2 (83), rat α2 (62), rat α5 (62), mouse α4 (37), mouse β3 (82), rat β1 (83), rat γ2S (63), human δ (12), and human ε (11) were produced by subcloning each separately into an appropriate cloning vehicle such as PCDM8, pCDNA3.1 or pGHEMHE vectors (Invitrogen, Carlsbad Calif.) using a T7 promoter and standard subcloning techniques (59). Plasmids were linearized with an appropriate restriction enzyme at a site 3′ to the insert and cRNAs were synthesized using T3 or T7 polymerase (mMessage mMachine, Ambion, Tex.). The size of the cRNA was verified and RNA was quantified by ethidium bromide staining after electrophoresis on 1% agarose gels.
# (§4) The preparation, injection, and maintenance of oocytes were carried out as described previously (78). Oocytes were injected with receptor subunit cRNAs (2 to 20 ng) in the following ratios: α1:β1:γ2S, α1:β2:γ2S and α1:β1:ε1, 1:1:1; α2:β1:γ2S, α5:β1:γ2S, α4:β1:γ2S, and α4:β2:γ2S, 10:1:1; α4:β1:δ, α4:β2:δ, α4:β3δ, 10:1:10; α1:β2:δ, 1:1:10 or 1:0.5:3; α1:β1:δ, 1:1:10 or 1:0.5:3; α2:β1:δ and α2:β2:δ, 1:0.5:3; α1:β1, α1:β2, α2:β1, α2:β2, β2:γ2S and α4δ, 1:1, α4:β1, α4:β2, α4:β3, 10:1, β2δ, 1:10.
# (§5) Voltage-clamp recording was carried out 1 to 3 days after injection of cRNAs. Electrodes were filled with 3 M KCl and had resistances of 0.4-4 MΩ. Oocytes were positioned in a small Perspex chamber and continuously superfused with a saline solution (100 mM NaCl, 2 mM KCl, 1.8 mM CaCl2, 10 mM HEPES, pH 7.5). Agonists and modulators were both applied in the same saline solution. Oocytes were voltage-clamped at −70 mV and macroscopic currents were recorded with a two-electrode voltage-clamp using a Warner Instruments OC-725 amplifier as described previously (79). Currents were recorded on a chart recorder or by using Axograph on a Macintosh computer.
# (§6) Other subunits (α1, α2, β1, β2) were tested for co-expression with the δ subunit. […]
# [6] = target: T3, α1β2δ receptors (oocytes injected with α1+β2+δ) (UniProt O14764+P62813+P63138); format: cell-based, rat α1, rat β2, human δ, expressed in Xenopus laevis oocytes; conditions: 1 μM zinc; 7 of 22 oocytes injected with α1+β2+δ
# T3 construct: expressed in transfected cells; host or cells: oocytes injected with cRNA (Xenopus laevis is named only)
# T3 sequence (P62813 28-455): as the sequence (P62813 28-455) above
# T3 sequence (P63138 26-474): as the sequence (P63138 26-474) above
# T3 sequence (O14764 25-452): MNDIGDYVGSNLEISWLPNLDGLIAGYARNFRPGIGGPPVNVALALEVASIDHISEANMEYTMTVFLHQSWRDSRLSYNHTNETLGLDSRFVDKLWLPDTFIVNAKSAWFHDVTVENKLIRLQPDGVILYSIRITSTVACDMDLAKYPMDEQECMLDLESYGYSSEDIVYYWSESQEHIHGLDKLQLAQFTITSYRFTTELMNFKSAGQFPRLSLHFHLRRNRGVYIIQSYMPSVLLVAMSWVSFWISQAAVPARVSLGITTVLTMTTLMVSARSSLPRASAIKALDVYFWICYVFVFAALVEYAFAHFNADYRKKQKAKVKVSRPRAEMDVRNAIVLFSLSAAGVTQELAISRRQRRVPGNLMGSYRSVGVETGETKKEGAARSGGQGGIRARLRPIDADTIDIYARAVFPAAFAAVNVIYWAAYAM
# From the text: as §3, §4, §5, §6
# α1β2 receptors = target: T4, α1β2 receptors (Rattus norvegicus, UniProt P62813+P63138); test: Two-electrode voltage-clamp of recombinant GABAA receptors in oocytes; format: cell-based, expressed in Xenopus laevis oocytes; conditions: 1 μM zinc; n=5
# T4 construct: expressed in transfected cells; host or cells: oocytes injected with cRNA (Xenopus laevis is named only)
# T4 sequence (P62813 28-455): as the sequence (P62813 28-455) above
# T4 sequence (P63138 25-474 limits assumed): as the sequence (P63138 25-474 limits assumed) above
# From the text: as §3
# The preparation, injection, and maintenance of oocytes were carried out as described previously (78). […]
# Voltage-clamp recording was carried out 1 to 3 days after injection of cRNAs. […] Oocytes were voltage-clamped at −70 mV and macroscopic currents were recorded with a two-electrode voltage-clamp using a Warner Instruments OC-725 amplifier as described previously (79). Currents were recorded on a chart recorder or by using Axograph on a Macintosh computer. […]
smiles,measurement,setting,value
"CC(=O)[C@H]1CC[C@H]2[C@@H]3CC[C@@H]4C[C@H](O)CC[C@]4(C)[C@H]3CC[C@]12C [3α, 5β-THP]",increase of α4 expression compared to control,GABAR α4 subunit,threefold
[La] [lanthanum],inhibition of currents at α4β2δ receptors,α4β2δ GABAA receptors [1]; La3+ 300 μM,80%
"O=C1Nc2ccc(Cl)cc2C(c2ccccc2Cl)=NC1O (stereo not shown) [LZM, lorazepam]",maximal potentiation of GABA-gated current,"[2]; 10 μM LZM, 48 h 3α,5β-THP with 2 h ethanol",90%
same,potentiation of GABA-gated current,"[2]; 10 μM LZM, 48 h 3α,5β-THP, saline-treated rats",12-15%
same,LZM-induced potentiation of GABA-gated current,[2]; 2 hours of ethanol after progesterone withdrawal,robust
"Oc1noc2c1CCNC2 [THIP, 4,5,6,7-tetrahydroisoxazolo[5,4-c]pyridin-3-ol]",attenuation of ASR,female Long Evans rats; P withdrawn animals,70%
same,increase of ASR,female Long Evans rats; control animals,about 40%
same,efficacy of THIP relative to GABA (maximum current),[3],increased efficacy
same,maximum current compared to that gated by GABA at α4βδ,α4β2δ GABAA receptors [4],greater maximum current
same,ratio of currents induced by THIP:GABA,α4β2δ GABAA receptors [1]; oocytes injected with α4+β2+δ subunits,1.24
[Zn] [zinc],zinc inhibition of GABA currents,[5],66.4±6.4%
same,zinc inhibition of GABA currents,[6],49.1±6.4%
same,zinc inhibition of GABA currents,α1β2 receptors,72.4±6.9%
